The source made the active and inactive calls.
Legend:
Assay type in all cases: functional, organism-based
[1] = test system: Mycobacterium intracellulare; assay: Antimicrobial activity against Mycobacterium intracellular at 20 ug/mL
Staphylococcus aureus [2] = assay: Antimicrobial activity against methicillin-resistant Staphylococcus aureus at 20 ug/mL
Candida albicans = assay: Antimicrobial activity against Candida albicans at 20 ug/mL
Aspergillus fumigatus = assay: Antimicrobial activity against Aspergillus fumigatus at 20 ug/mL
Cryptococcus neoformans = assay: Antimicrobial activity against Cryptococcus neoformans at 20 ug/mL
Pseudomonas aeruginosa = assay: Antimicrobial activity against Pseudomonas aeruginosa at 20 ug/mL
Staphylococcus aureus [3] = assay: Antimicrobial activity against Staphylococcus aureus at 20 ug/mL

Measured: Activity

COc1cc(C(=O)O[C@H]2C[C@]3(C(=O)O)C[C@@H]4C[C@]45C(=CCC4[C@@]6(C)CC[C@H](O[C@@H]7O[C@H](CO)[C@@H](O)[C@H](O)[C@H]7O[C@@H]7OC[C@@H](O[C@@H]8OC[C@@H](O)[C@H](O)[C@H]8O)[C@H](O)[C@H]7O)C(C)(C)[C@@H]6CC[C@]45C)[C@@H]3CC2(C)C)cc(OC)c1OC (some centres not stated)
inactive: all assays above
